Measured values published in PubChem BioAssay AID1259408 (Genetic Toxicology Data Bank (GENE-TOX), 2018).
Calls of active or inactive are those of the source. No rule for the calls is given here.

Test system: GENE-TOX genotoxicity assays, various organisms and cells
Experiment: GENE-TOX mutagenicity studies
Conditions: for call: Assay Type: In vivo carcinogenicity studies, Assay Code: CCG+
Text: GENE-TOX provides genetic toxicology (mutagenicity) test data from expert peer review of open scientific literature for more than 3,000 chemicals from the United States Environmental Protection Agency (EPA). GENE-TOX was established to select assay systems for evaluation, review data in the scientific literature, and recommend proper testing protocols and evaluation procedures for these systems.
GENE-TOX covers the years 1991 - 1998. It is no longer updated.
This is an archive assay for GENE-TOX mutagenicity studies.

[1] = Species/Cell Type: Bacillus subtilis (H17 vs M45), Assay Type: Rec-assay, spot test, DNA effects (bacterial DNA repair), Assay Code: REW+, Evaluation Type: Evaluation A (Pre-1980)
[2] = Species/Cell Type: Drosophila melanogaster, Assay Type: Sex-linked recessive lethal gene mutation, Assay Code: SRLT, Evaluation Type: Evaluation A (Pre-1980)
[3] = Species/Cell Type: Escherichia coli polA (W3119 vs P3478), Assay Type: Rec-assay, DNA effects (bacterial DNA repair), Assay Code: RE1+, Evaluation Type: Evaluation A (Pre-1980)
[4] = Species/Cell Type: Human diploid fibroblasts, Assay Type: Unscheduled DNA synthesis (UDS) in vitro, DNA effects, Assay Code: UDH-, Evaluation Type: Evaluation A (Pre-1980)
[5] = Species/Cell Type: Saccharomyces cerevisiae, Assay Type: Mitotic recombination or gene conversion, Assay Code: YEH-, Evaluation Type: Evaluation A (Pre-1980)
[6] = Species/Cell Type: Nonhuman, Evaluation Type: Evaluation A (Pre-1980)
[7] = Species/Cell Type: Salmonella typhimurium (one or more of the five standard strains: TA98, TA100, TA1535, TA1537, and TA1538), Assay Type: Histidine reverse gene mutation, Ames assay, Assay Code: SALT, Evaluation Type: Evaluation A (Pre-1980)
[8] = Species/Cell Type: Human lymphocytes, Assay Type: Sister-chromatid exchange (SCE) in vitro, Assay Code: SCL+D, Dose Response: With dose response, Evaluation Type: Evaluation B (Post-1980)
[9] = Species/Cell Type: Salmonella typhimurium (one or more of the five standard strains: TA98, TA100, TA1535, TA1537, and TA1538), Assay Type: Histidine reverse gene mutation, Ames assay, Assay Code: SAL+, Evaluation Type: Evaluation A (Pre-1980)
[10] = Species/Cell Type: Syrian hamster embryo (SA7/SHE) cells, Assay Type: Cell transformation, viral enhanced, Assay Code: CT7+, Evaluation Type: Evaluation A (Pre-1980)
[11] = Species/Cell Type: Human lymphocytes, Assay Type: Sister-chromatid exchange (SCE) in vitro, Assay Code: SCLT, Evaluation Type: Evaluation B (Post-1980)
[12] = Species/Cell Type: Human, Assay Type: Sister-chromatid exchange (SCE) in vitro, Assay Code: SC1T, Evaluation Type: Evaluation B (Post-1980)
[13] = Species/Cell Type: Allium cepa, Assay Type: Chromosome aberrations, Assay Code: ALC+D, Dose Response: With dose response, Evaluation Type: Evaluation A (Pre-1980)
[14] = Species/Cell Type: Vicia faba, Assay Type: Chromosome aberrations, Assay Code: VIC+, Evaluation Type: Evaluation A (Pre-1980)
[15] = Species/Cell Type: Salmonella typhimurium (one or more of the five standard strains: TA98, TA100, TA1535, TA1537, and TA1538), Assay Type: Histidine reverse gene mutation, Ames assay, Assay Code: SAL+*, Activation: With metabolic activation, Evaluation Type: Evaluation A (Pre-1980)
[16] = Species/Cell Type: Nonhuman, Assay Type: Sister-chromatid exchange (SCE) in vitro, Assay Code: SC2+, Evaluation Type: Evaluation B (Post-1980)

SMILES: CN(C)CC/C=C1\c2ccccc2CSc2ccccc21
- mutagenic call (Species/Cell Type: Rodents, Sex: Male, Assay Type: Dominant lethal test, Assay Code: DLT-, Evaluation Type: Evaluation A (Pre-1980)): inactive; negative

SMILES: O=C(O)c1ccccc1N=Nc1ccc(N(CCCl)CCCl)cc1
- mutagenic call (Species/Cell Type: Drosophila melanogaster, Assay Type: Sex-linked recessive lethal gene mutation, Assay Code: SRL+, Evaluation Type: Evaluation A (Pre-1980)): active; positive

SMILES: COc1c(Cl)ccc(Cl)c1C(=O)O
- mutagenic call [1]: active; positive
- mutagenic call [2]: no conclusion
- mutagenic call [3]: active; positive
- mutagenic call (Species/Cell Type: Hordeum vulgare (barley), Assay Type: Chromosome aberrations, Assay Code: HOC+, Evaluation Type: Evaluation A (Pre-1980)): active; positive
- mutagenic call [4]: inactive; negative
- mutagenic call [5]: inactive; negative
- mutagenic call (Species/Cell Type: Salmonella typhimurium (one or more of the five standard strains: TA98, TA100, TA1535, TA1537, and TA1538), Assay Type: Histidine reverse gene mutation, Ames assay, Assay Code: SAL-, Evaluation Type: Evaluation A (Pre-1980)): inactive; negative

SMILES: C1COCCO1
- call [6]: active; positive
- mutagenic call (Species/Cell Type: Syrian hamster embryo (SA7/SHE) cells, Assay Type: Cell transformation, viral enhanced, Assay Code: CT7-, Evaluation Type: Evaluation A (Pre-1980)): inactive; negative

SMILES: Nc1ccc(Oc2ccc(N)cc2)cc1
- call [6]: active; positive
- mutagenic call (Species/Cell Type: Nonhuman, Assay Type: Sister-chromatid exchange (SCE) in vivo, Assay Code: SC3T, Evaluation Type: Evaluation B (Post-1980)): no conclusion

SMILES: [O-2].[O-2].[O-2].[Sb+3].[Sb+3]
- mutagenic call [1]: active; positive

SMILES: CC(F)F
- mutagenic call [2]: no conclusion

SMILES: Nc1c(N=Nc2ccc([N+](=O)[O-])cc2)c(S(=O)(=O)O)cc2cc(S(=O)(=O)O)c(N=Nc3ccccc3)c(O)c12
- mutagenic call (Species/Cell Type: Bacillus subtilis (H17 vs M45), Assay Type: Rec-assay, spot test, DNA effects (bacterial DNA repair), Assay Code: REWT, Evaluation Type: Evaluation A (Pre-1980)): no conclusion

SMILES: CC(=O)OC[C@H]1O[C@@H](Oc2ccc(O)c3c2C(=O)c2ccccc2C3=O)[C@H](OC(C)=O)[C@@H](OC(C)=O)[C@@H]1OC(C)=O
- mutagenic call [7]: no conclusion

SMILES: [Cl-].[Cl-].[NH2-].[NH2-].[NH2-].[Pt+2]
- mutagenic call (Species/Cell Type: Chinese hamster ovary (CHO) cells, Assay Type: Forward gene mutation at the HPRT locus, Assay Code: CHO+, Evaluation Type: Evaluation B (Post-1980)): active; positive

SMILES: Cn1ccc(CO)c1CO
- mutagenic call [8]: active; positive

SMILES: CC(C)CN(N=O)C(N)=O
- mutagenic call (Species/Cell Type: Arabidopsis species, Assay Type: Gene mutation, Assay Code: ARM+D, Dose Response: With dose response, Evaluation Type: Evaluation A (Pre-1980)): active; positive

SMILES: O=NN1CCC(O)C1 (centres undefined)
- mutagenic call [9]: active; positive

SMILES: C[As]=S (centres undefined)
- mutagenic call [1]: active; positive

SMILES: CC(=O)Oc1c2ccccc2c2ccc3cccc4ccc1c2c43
- mutagenic call [10]: active; positive

SMILES: Cc1c2ccccc2c2ccc3cccc4ccc1c2c43
- mutagenic call (Species/Cell Type: Chinese hamster lung (V79) cells, Assay Type: Forward gene mutation at the HPRT or ouabain locus, Assay Code: V79+*, Activation: With metabolic activation, Evaluation Type: Evaluation A (Pre-1980)): active; positive
- call [6]: active; positive

SMILES: CCc1ccc(O)cc1
- mutagenic call [11]: no conclusion
- mutagenic call [12]: no conclusion

SMILES: CCNc1nc(Cl)nc(NCC)n1
- mutagenic call (Species/Cell Type: Drosophila melanogaster, Assay Type: Aneuploidy, partial sex chromosome loss, chromosome aberrations, Assay Code: DAPT, Evaluation Type: Evaluation A (Pre-1980)): no conclusion
- mutagenic call (Species/Cell Type: Drosophila melanogaster, Assay Type: Aneuploidy, sex chromosome gain, chromosome aberrations, Assay Code: DAGT, Evaluation Type: Evaluation A (Pre-1980)): no conclusion
- mutagenic call (Species/Cell Type: Drosophila melanogaster, Assay Type: Aneuploidy, whole sex chromosome loss, chromosome aberrations, Assay Code: DAC-M, Evaluation Type: Evaluation A (Pre-1980)): inactive; negative
- mutagenic call [4]: inactive; negative
- mutagenic call (Species/Cell Type: Saccharomyces cerevisiae, Assay Type: Mitotic recombination or gene conversion, Assay Code: YEC-, Evaluation Type: Evaluation A (Pre-1980)): inactive; negative
- mutagenic call [5]: inactive; negative
- mutagenic call [7]: no conclusion
- mutagenic call [10]: active; positive

SMILES: [CH3][Hg+]
- mutagenic call [13]: active; positive
- mutagenic call (Species/Cell Type: Drosophila melanogaster, Assay Type: Aneuploidy, sex chromosome gain, chromosome aberrations, Assay Code: DAG+M+F, Evaluation Type: Evaluation A (Pre-1980)): active; positive
- mutagenic call (Species/Cell Type: Drosophila melanogaster, Assay Type: Aneuploidy, whole sex chromosome loss, chromosome aberrations, Assay Code: DAC+M+F, Evaluation Type: Evaluation A (Pre-1980)): active; positive

SMILES: CS(=O)(=O)OC[C@H](O)[C@@H](O)COS(C)(=O)=O
- mutagenic call [13]: active; positive
- mutagenic call (Species/Cell Type: Arabidopsis species, Assay Type: Gene mutation, Assay Code: ARM+, Evaluation Type: Evaluation A (Pre-1980)): active; positive
- mutagenic call (Species/Cell Type: Hordeum vulgare (barley), Assay Type: Chromosome aberrations, Assay Code: HOC+D, Dose Response: With dose response, Evaluation Type: Evaluation A (Pre-1980)): active; positive
- mutagenic call [14]: active; positive

SMILES: OC1c2ccccc2C2OC2[C@H]1O (some centres undefined)
- mutagenic call [3]: active; positive

SMILES: CC1CCOS(=O)(=O)O1 (centres undefined)
- mutagenic call [9]: active; positive
- mutagenic call (Species/Cell Type: Salmonella typhimurium, Assay Type: Forward and reverse gene mutation, host-mediated assay, Assay Code: HMA+, Evaluation Type: Evaluation A (Pre-1980)): active; positive

SMILES: CC1CCc2c1ccc1c2ccc2ccccc21 (centres undefined)
- mutagenic call [15]: active; positive

SMILES: CC(=O)OC[C@]12CCC(C)=C[C@H]1O[C@@H]1[C@H](O)[C@@H](OC(C)=O)[C@@]2(C)[C@]12CO2
- mutagenic call [5]: inactive; negative
- mutagenic call [7]: no conclusion

SMILES: COc1ccc(/C=C/Cl)cc1
- mutagenic call [8]: active; positive
- mutagenic call (Species/Cell Type: Human, Assay Type: Sister-chromatid exchange (SCE) in vitro, Assay Code: SC1+D, Dose Response: With dose response, Evaluation Type: Evaluation B (Post-1980)): active; positive

SMILES: Cc1cccc2ccc3cc4ccccc4cc3c12
- mutagenic call [16]: active; positive
- mutagenic call [15]: active; positive

SMILES: O=C(O)C(Cl)(Cl)Cl
- mutagenic call (Species/Cell Type: Mammalian polychromatic erythrocytes, Assay Type: Micronucleus test, chromosome aberrations, Assay Code: MNT+, Evaluation Type: Evaluation B (Post-1980)): active; positive
- mutagenic call [7]: no conclusion
- mutagenic call [14]: active; positive

SMILES: O=c1[nH]cc(I)c(=O)[nH]1
- mutagenic call [14]: active; positive

SMILES: Cc1c2ccccc2c(C)c2c1ccc1ccc(F)cc12
- mutagenic call (Species/Cell Type: Chinese hamster lung (V79) cells, Assay Type: Forward gene mutation at the HPRT or ouabain locus, Assay Code: V79-*, Activation: With metabolic activation, Evaluation Type: Evaluation A (Pre-1980)): inactive; negative

SMILES: O=c1[nH]cc(Br)c(=O)[nH]1
- mutagenic call (Species/Cell Type: Hordeum vulgare (barley), Assay Type: Gene mutation, Assay Code: HOM+D, Dose Response: With dose response, Evaluation Type: Evaluation A (Pre-1980)): active; positive
- mutagenic call [5]: inactive; negative
- mutagenic call [14]: active; positive

SMILES: CCCCOc1ccc(CC(=O)NO)cc1
- mutagenic call [11]: no conclusion
- mutagenic call [12]: no conclusion
- mutagenic call [16]: active; positive
- mutagenic call [7]: no conclusion

SMILES: FC(F)(Cl)Cl
- mutagenic call (Species/Cell Type: Tradescantia species, Assay Type: Gene mutation, Assay Code: TRM-, Evaluation Type: Evaluation A (Pre-1980)): inactive; negative

SMILES: O=[N+]([O-])c1cccc(O)c1
- mutagenic call (Species/Cell Type: Allium cepa, Assay Type: Chromosome aberrations, Assay Code: ALC-, Evaluation Type: Evaluation A (Pre-1980)): inactive; negative

SMILES: CC(=O)O[C@@H]1[C@@H](O)[C@H]2O[C@@H]3C=C(C)C(=O)[C@@H](O)[C@]3(CO)[C@]1(C)[C@]21CO1
- mutagenic call (Species/Cell Type: Bacillus subtilis (H17 vs M45), Assay Type: Rec-assay, spot test, DNA effects (bacterial DNA repair), Assay Code: REW-, Evaluation Type: Evaluation A (Pre-1980)): inactive; negative
- mutagenic call [7]: no conclusion

SMILES: c1ccc2nccnc2c1
- mutagenic call (Species/Cell Type: Mouse, Sex: Male, Assay Type: Sperm morphology, Assay Code: SPI-, Evaluation Type: Evaluation A (Pre-1980)): inactive; negative
